Structures can show the parent of a compound that is named as a salt.
How the values were obtained:
NMRI mouse [1] = experiment: Tail suspension test in the NMRI mouse; assay type: in vivo; settings: 10 mg/kg IP 24 hours and 30 minutes before suspension, 6 minutes
Procedure: The tail suspension test in the mouse (Porsolt et al., Arch. Int. Pharmacodyn., 1987, 288, 11) enables detection of psychopharmacological properties of compounds. NMRI mice are suspended by the tail, with the aid of a piece of adhesive tape, from a hook for 6 minutes: the immobility time is measured automatically with the aid of movement sensors. The animals are treated, by the intraperitoneal route, with the compounds of the invention or their carriers 24 hours and 30 minutes before they are suspended.

NMRI mouse [2] = experiment: Forced swimming test in the NMRI mouse; assay type: in vivo; settings: 30 mg/kg IP 30 minutes before test, final 4 minutes of 6
Procedure: The forced swimming test is very widely used for detecting the antidepressant properties of compounds (Porsolt et al., Arch. Int. Pharmacodyn., 1977, 229, 327-336). The animals are placed for 6 minutes in cylinders filled with water (14 cm) and the immobility time is measured for the final 4 minutes by a video-tracking system. The compounds of the present invention or their carriers are administered by the intraperitoneal route 30 minutes before the mice are placed in the cylinder.

NMRI mouse [3] = experiment: Marble-burying test in the NMRI mouse; assay type: in vivo; settings: 30 mg/kg IP 30 minutes before test, 30 minutes period
Procedure: The spontaneous marble-burying behaviour in the mouse is a very sensitive empirical test for antidepressant compounds (Sanchez and Meier, Psychopharmacology, 1997; 129: 197-205; Nicolas and Prinssen, Eur. J. Pharmacol., 2006, 547: 106-115). The mice are placed in individual cages in which there are 24 marbles and the number of marbles buried by each animal is determined for a period of 30 minutes. The animals are treated by the intraperitoneal route with the compounds of the present invention or their carriers 30 minutes before placing the animals in the cage containing marbles.

Wistar rat [4] = experiment: Electroencephalogram recordings in the awake Wistar rat; assay type: in vivo; settings: 3 mg/kg IP
Procedure: Electrodes are chronically implanted in adult male Wistar rats, being located at the surface of the frontal and parietal cortex. Cortical electroencephalogram (EEG) recordings are made in the rats placed in cages in a sound-proofed room. The compounds and carriers are administered in randomised manner by the intraperitoneal route at 10 o'clock on the same days with a minimum of 3 days between each administration, allowing each rat to be used as its own control. The absolute power of the slow delta activities (1-4 Hz), which predominate during slow sleep and disappear during wakefulness and paradoxical sleep, is averaged over successive periods of 30 minutes. Over 30 minutes, high and low values for the power of the slow delta activities are signs of […], respectively.

Wistar rat [5] = experiment: Social recognition in the Wistar rat; assay type: in vivo; settings: second encounter after 2 hours
Source text: Initially described in 1982 (J. Comp. Physiol., 1982, 96, 1000-1006), the social recognition test has subsequently been proposed by various authors (Psychopharmacology, 1987, 91, 363-368; Psychopharmacology, 1989, 97, 262-268) for studying the mnemocognitive effects of new compounds. The test is based on the natural expression of the olfactory memory of the rat and its natural tendency to forget and allows evaluation of memorisation, by recognition of a young congeneric animal, by an adult rat. A young rat (21 days), taken at random, is placed for 5 minutes in the cage housing an adult rat. With the aid of a video device, the experimenter observes the social recognition behaviour of the adult rat and measures its overall duration. The young rat is then removed from the adult rat's cage and is placed in its own cage until the second introduction. The adult rat is given the compound under test by the intraperitoneal route and, after 2 hours, is again brought into the presence (5 minutes) of the young rat. The social recognition behaviour is then observed again and its duration measured. The assessment criterion is the difference (T2−T1), expressed in seconds, between the “recognition” times of the 2 encounters.

Sprague-Dawley rat = experiment: Object recognition in the Sprague-Dawley rat; assay type: in vivo; settings: 0.3 mg/kg PO, 60 minutes before each session, 24 hours between sessions
Source text: The object recognition test in the Sprague-Dawley rat (Behav. Brain Res., 1988, 31, 47-59) is based on the spontaneous exploratory activity of the animal and has the characteristics of episodic memory in humans. This memory test is sensitive to ageing (Eur. J. Pharmacol., 1997, 325, 173-180) and to cholinergic dysfunctions (Pharm. Biochem. Behav. 1996, 53(2), 277-283) and is based on the differences in the exploration of 2 objects of fairly similar shape—one familiar, the other new. Prior to the test, the animals are habituated to the environment (an enclosure without an object). In the course of a first session, the rats are placed (3 minutes) in the enclosure, in which there are 2 identical objects. The duration of exploration is measured for each object. In the course of the second session (3 minutes), 24 hours later, 1 of the 2 objects is replaced by a new object. The duration of exploration is measured for each object. The assessment criterion is the difference, Delta, expressed in seconds, between the exploration times for the new object and for the familiar object in the course of the second session.

Wistar rat [6] = experiment: Interaction with barbital in the Wistar rat; assay type: in vivo; settings: 30 mg/kg PO 30 minutes before barbital 170 mg/kg IP, sleep measured for 4 hours
Procedure: The objective of this test is to determine the anti-sedative, awakening and/or anti-hypnotic properties of the compounds of the present invention. The rats are placed in individual cages and are given an injection of barbital (170 mg/kg IP). The duration of sleep is then measured for 4 hours after the injection of barbital, determined on the basis of loss of the righting reflex. The compounds of the invention or their carriers are administered by the oral route 30 minutes before the administration of barbital.

[7] = molecular target: T1, type H3 central histamine receptors (Mus musculus, UniProt P58406); experiment: Cerebral levels of Nτ-methylhistamine in the NMRI mouse (ex vivo H3 antagonist activity); settings: one hour after treatment, vs carrier
T1 construct: the brains are removed, frozen in liquid nitrogen, weighed and homogenised; from tissue; host or cells: brain of living NMRI mice (oral dosing)
Procedure: The purpose of this study, which was carried out in accordance with the method of Taylor et al. (Biochem. Pharm., 1992, 44, 1261-1267), is to evaluate the ex vivo activity of the compounds of the present invention as antagonists of type H3 central histamine receptors. […] An increase in the cerebral concentrations of N^τ-methylhistamine indicates an increase in the turn-over of histamine by blockage of the type H3 central histamine receptors.
NMRI mice (18-20 g) are treated with compounds of the present invention or with their carrier (20 ml/kg) by the oral route. One hour after the pharmacological treatment, the animals are sacrificed; the brains are removed, frozen in liquid nitrogen, weighed and homogenised in 0.1N HClO4 at 4° C. The homogenised products are centrifuged (15 000 g, 17 min, 4° C.). The supernatants are recovered and divided into aliquots. The aliquots are frozen in liquid nitrogen and stored at −80° C. until they are analysed.
Determination of the cerebral levels of N^τ-methylhistamine is carried out by capillary electrophoresis. The tissue levels of N^τ-methylhistamine are expressed in μg/g of fresh brain. The comparison of the cerebral levels of N^τ-methylhistamine between animals treated with the carrier (controls) and animals treated with compounds of the present invention is carried out by single-factor variance analysis followed, if necessary, by a complementary analysis (Dunnett's test).

T1 sequence (P58406 whole entry): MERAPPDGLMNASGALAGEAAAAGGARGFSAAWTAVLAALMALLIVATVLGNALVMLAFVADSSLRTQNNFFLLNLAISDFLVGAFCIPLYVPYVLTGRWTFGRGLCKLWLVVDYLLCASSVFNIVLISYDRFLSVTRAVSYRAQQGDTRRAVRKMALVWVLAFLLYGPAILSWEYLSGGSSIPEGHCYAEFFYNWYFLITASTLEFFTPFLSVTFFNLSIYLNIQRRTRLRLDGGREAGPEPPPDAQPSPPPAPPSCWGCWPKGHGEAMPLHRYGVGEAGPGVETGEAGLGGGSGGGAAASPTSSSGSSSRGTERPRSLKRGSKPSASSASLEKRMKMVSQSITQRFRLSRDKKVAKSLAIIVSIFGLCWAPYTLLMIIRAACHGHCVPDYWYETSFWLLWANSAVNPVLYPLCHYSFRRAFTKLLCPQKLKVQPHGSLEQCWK

Compound | reduction in the immobility time (NMRI mouse [1]) [%] | reduction in immobility (NMRI mouse [2]) [%] | decrease in the number of balls buried (NMRI mouse [3]) [%] | reduction of the duration of sleeping caused by barbital (Wistar rat [6]) [%] | increase in endogenous cerebral concentrations of Nτ-methylhistamine ([7]; 10 mg/kg PO) [%] | increase in endogenous cerebral concentrations of Nτ-methylhistamine ([7]; 30 mg/kg PO) [%] | further results
NC(=O)c1ccc(OCCCN2C[C@H]3C[C@H]3C2)cc1 [Example 1, 4-{3-[(1R,5S)-3-Azabicyclo[3.1.0]hex-3-yl]propoxy}-benzamide hydrochloride] | 59 | 76 | 48 |  |  |  | duration of the reduction in the power of the slow delta waves (Wistar rat [4]): 120 min; difference (T2−T1) between the recognition times of the 2 encounters (Wistar rat [5]; 1 mg/kg IP): 21 s; difference (T2−T1) between the recognition times of the 2 encounters (Wistar rat [5]; 3 mg/kg IP): 26 s; difference, Delta, between exploration times for the new object and the familiar object (second session) (Sprague-Dawley rat): ~6 s
NC(=O)c1ccc(OCCN2C[C@H]3C[C@H]3C2)cc1 [Example 2, 4-{2-[(1R,5S)-3-Azabicyclo[3.1.0]hex-3-yl]ethoxy}benzamide] |  |  | 99 |  |  |  | 
CC(=O)Nc1ccc(OCCCN2C[C@H]3C[C@H]3C2)cc1 [Example 4, N-(4-{3-[(1R,5S)-3-Azabicyclo[3.1.0]hex-3-yl]propoxy}phenyl)acetamide] | 36 |  |  |  |  |  | 
CC(=O)Nc1ccc(OCCN2C[C@H]3C[C@H]3C2)cc1 [Example 5, N-(4-{2-[(1R,5S)-3-Azabicyclo[3.1.0]hex-3-yl]ethoxy}phenyl)acetamide] | 64 | 32 | 49 | −80 | 109 | 200 | 
CC(=O)Nc1ccc(OCCCCN2C[C@H]3C[C@H]3C2)cc1 [Example 6, N-(4-{4-[(1R,5S)-3-Azabicyclo[3.1.0]hex-3-yl]butoxy}phenyl)acetamide] |  |  |  |  | 106 | 210 | 
CN(C)C(=O)c1ccc(OCCCCN2C[C@H]3C[C@H]3C2)cc1.O=C(O)C(=O)O [Example 8, 4-{4-[(1R,5S)-3-Azabicyclo[3.1.0]hex-3-yl]butoxy}-N,N-dimethyl-benzamide oxalate] |  |  |  | −79 |  |  | 
CNC(=O)c1ccc(OCCCCN2C[C@H]3C[C@H]3C2)cc1 [Example 12, 4-{4-[(1R,5S)-3-Azabicyclo[3.1.0]hex-3-yl]butoxy}-N-methylbenzamide] |  |  |  | −55 |  |  | 
CC(=O)N(C)c1ccc(OCCCN2C[C@H]3C[C@H]3C2)cc1.Cl [Example 13, N-(4-{3-[(1R,5S)-3-Azabicyclo[3.1.0]hex-3-yl]propoxy}phenyl)-N-methylacetamide hydrochloride] | 53 |  |  |  | 135 | 303 | duration of the reduction in the power of the slow delta waves (Wistar rat [4]): 120 min; effect on power of the slow delta waves (1-4 Hz), cortical EEG (Wistar rat [4]): significant reduction
COCC(=O)Nc1ccc(OCCCN2C[C@H]3C[C@H]3C2)cc1 [Example 14, N-(4-{3-[(1R,5S)-3-Azabicyclo[3.1.0]hex-3-yl]propoxy}phenyl)-2-methoxyacetamide] | 36 |  |  |  | 124 | 266 | 
COCC(=O)Nc1ccc(OCCN2C[C@H]3C[C@H]3C2)cc1 [Example 15, N-(4-{2-[(1R,5S)-3-Azabicyclo[3.1.0]hex-3-yl]ethoxy}phenyl)-2-methoxyacetamide] | 77 | 34 | 83 | −76 |  |  | 

— patent publication US7906547B2, “Azabicylic compounds, a process for their preparation and pharmaceutical compositions containing them” (Les Laboratoires Servier, priority 2008, dated 2011)
